In paper PMC9313812, “The Pseudo‐Natural Product Rhonin Targets RHOGDI” (Angewandte Chemie (International Ed. in English), 2022):

Target: T1, RHOGDI1 (Homo sapiens, UniProt P52565)
T1 construct: GST; made in house; host or cells: E. coli (XL1-Blue / BL21)
Assay: Limited proteolysis mass spectrometry (LiP-MS)
Format: binding
Settings: 100 μM compound

T1 sequence (P52565 16-204): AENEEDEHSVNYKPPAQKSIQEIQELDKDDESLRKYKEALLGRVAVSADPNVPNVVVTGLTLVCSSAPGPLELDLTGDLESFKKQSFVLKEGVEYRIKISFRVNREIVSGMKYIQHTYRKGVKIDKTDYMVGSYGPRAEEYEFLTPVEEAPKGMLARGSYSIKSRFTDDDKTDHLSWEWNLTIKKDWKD

COC(=O)C1(C(CC(=O)c2cccnc2)c2ccccc2)N=C(c2ccc(Br)cc2)C2C(=O)N(C)C(=O)C21 (stereo not shown) [7l]
Protection of RHOGDI1 peptides from proteinase K-mediated proteolysis (in words): several peptides in the 179–199 amino acid sequence were protected
